From PMC9231138, “Dihydrotanshinone I Enhances Cell Adhesion and Inhibits Cell Migration in Osteosarcoma U−2 OS Cells through CD44 and Chemokine Signaling” (Molecules, 2022)

Legend:
Type in all cases: cell-based, human
CD44 = CD44 expression by immunofluorescence; conditions: DS−1 2.5, 5.0, and 7.5 µM for 24 h
Description: Figure 7 DS−1 enhanced U−2 OS cells’ adhesion. (A) The morphological changes of U−2 OS cells treated with/without DS−1. Cells were treated with 0 and 7.5 μM DS−1 for 24 h, washed with PBS, and digested with trypsin at 25 °C under a microscope, and photos were taken every 30 s. The percentages of digested cells are recorded in (B). (C) Heatmap of genes related to the adherens’ junction in the control group and DS−1 group. (D) U−2 OS cells were treated with 0 and 7.5 μM DS−1 for 24 h, and the expression of CD44 was observed by immunofluorescence. (E,F) CD44 and GAPDH were analyzed by Western blot and calculated by Image J. (G) The relative expression of 4 kinds of MT-MMPs was analyzed by the transcriptome, as shown in the heatmap. (H) After being treated with DS−1, the relative expression of MT-MMP-1 was verified by RT-PCR. Values are the average of three independent experiments, * p < 0.05, ** p < 0.01, *** p < 0.005.
Coverslip preparation: we cultured U−2 OS cells on sterile glass coverslips in 24-well plates and then treated them with DS−1 at different concentrations.
Fixation and staining: We washed the cells with PBS 3 times and fixed the cells with 200 μL 4% paraformaldehyde/PBS solution at 4 °C for 15 min. We then rinsed 3 times with PBS and permeabilized with 200 μL 0.2% TritonX-100 at room temperature for 30 min. […]

phospho-STAT3 = experiment: Western blot phospho-STAT3; conditions: 24 h
Description: (§1) Sample preparation: U−2 OS cells seeded in 10 cm Petri dishes were collected and washed with ice-cold PBS and RIPA lysis buffer with PMAF; phosphatase inhibitor was added, and the tubes were placed on ice for 30 min and vortexed for 30 s at intervals of 10 min. The samples were centrifuged at 12,000 g at 4 °C for 15 min, and the supernatants were collected in new centrifuge tubes. The protein samples were placed on ice, and the concentration of each protein sample was measured by the BCA kit (Thermo). The protein concentration was adjusted to the same by milli Q ultrapure water.
(§2) Loading and running the gel: Equal amounts of protein were loaded into the wells of the 10% SDS-PAGE gel, along with molecular weight markers, and 15 μg of total protein from the cell lysate was loaded. We then ran the gel for 45 min at 200 V.
(§3) Transferring the protein: We prepared the transfer stack as follows: negative plate, sponge, filter paper, gel, PVDF membrane, filter paper, sponge, and positive plate. The transfer was for 90 min at 200 mA.
(§4) Antibody staining: We blocked the membrane for 1 h at room temperature using 5% blocking solution, then incubated the membrane with appropriate dilutions of the primary antibody in the blocking solution overnight at 4 °C. We then washed the membrane with TBST reagent 3 times, 5 min each. Then, we incubated the membrane with the recommended dilution of labeled secondary antibody in blocking solution at room temperature for 1 h and washed the membrane with TBST reagent 3 times, 5 min each. For signal development, super-enhanced chemiluminescence detection reagents were added to the surface of the membrane for 1 min, then excess reagent was removed, and the membrane was covered in transparent plastic wrap. Images were acquired using darkroom development techniques for chemiluminescence and analyzed by Image J.

MT-MMP-1 = experiment: RT-PCR MT-MMP-1 mRNA in U−2 OS cells
Description: (§5) Total RNA within cells was extracted by the RNAeasy™ Animal Long RNA Isolation Kit with Spin Column (Shanghai, Beyotime); the concentrations and OD260/OD280 and OD230/OD260 values were measured by NanoDrop. Five micrograms of RNA was used for reverse transcription; each sample was diluted to 16 μL, and 4 μL of synthesized premix solution (5×) was added, then the mixtures were placed in a 42 °C water bath for 10 min, then an 80 °C water bath for 10 min to deactivate reverse transcriptase. After reverse transcription, each sample was diluted to 140 μL. PCR amplification was carried out by the ABI700 real-time PCR system, and the amplification reaction was detected with a SYBR probe. After PCR, actin and GAPDH were used as internal references, and the relative standard curve method (2^−ΔΔcT) determined the relative expression of mRNA.

STAT3 = experiment: Western blot STAT3; conditions: DS−1 2.5, 5.0, and 7.5 µM, 24 h
Description: as §1, §2, §3
Antibody staining: We blocked the membrane for 1 h at room temperature using 5% blocking solution, then incubated the membrane with appropriate dilutions of the primary antibody in the blocking solution overnight at 4 °C. […] Images were acquired using darkroom development techniques for chemiluminescence and analyzed by Image J.

snail = experiment: RT-PCR snail mRNA in U−2 OS cells; conditions: 24 h
Description: as §5

U−2 OS cells = experiment: Scratch motility (wound-healing) assay
Description: U-2 OS cells were seeded in 6-well plates at a density of 200,000 per well and cultured to 90% abundance after 18 h. The cells were scratched with a 10 μL pipette tip along the ruler; each well was scratched 3 times in parallel, and the line was drawn perpendicular to the scratch on the back for fixed-point photography. We suctioned the previous medium and washed the cells with a PBS reagent. Then, we added 2% FBS medium with DS−1 and cultured the cells at 37 °C for different times. After 0, 24, and 48 h, the plate was taken out, and the scratches were observed and photographed by the inverted microscope, while the distance of scratches at different times was measured.
Cell mobility = (pre-migration distance – post-migration distance)/pre-migration distance × 100%. The cell migration rate of blank control was set as 100%, and the relative cell migration rate = cell migration rate/cell migration rate of control group × 100%

pAKT = experiment: Western blot pAKT; conditions: 24 h
Description: as §1, §2, §3, §4

vimentin = experiment: RT-PCR vimentin mRNA in U−2 OS cells; conditions: 24 h
Description: as §5

**Q.** Which results are given for `Cc1cccc2c3c(ccc12)C1=C(C(=O)C3=O)[C@@H](C)CO1` [DS−1, 15,16-Dihydrotanshinone I]?
**A.** CD44 expression (CD44): significantly increased; phospho-STAT3, fold of the control group (phospho-STAT3; DS−1 2.5 µM): 0.59 ± 0.09 fold; phospho-STAT3, fold of the control group (phospho-STAT3; DS−1 5.0 µM): 0.43 ± 0.03 fold; phospho-STAT3, fold of the control group (phospho-STAT3; DS−1 7.5 µM): 0.32 ± 0.03 fold; ratio of pSTAT3/STAT3 (phospho-STAT3; DS−1 2.5, 5.0, and 7.5 µM): significantly decreased; MT-MMP-1 mRNA expression, fold (MT-MMP-1; DS−1 2.5 µM): 0.92 ± 0.14 fold; MT-MMP-1 mRNA expression, fold (MT-MMP-1; DS−1 5.0 µM): 0.72 ± 0.03 fold; MT-MMP-1 mRNA expression, fold (MT-MMP-1; DS−1 7.5 µM): 0.07 ± 0.13 fold; total protein content of STAT3 (STAT3): did not change significantly; snail mRNA, fold of the control group (snail; DS−1 5.0 µM): 0.46 ± 0.05 fold; snail mRNA, fold of the control group (snail; DS−1 7.5 µM): 0.39 ± 0.03 fold; relative mobility compared to control cells (U−2 OS cells; DS−1 2.5 µM, 24 h): 24.8 ± 9.9%; relative mobility compared to control cells (U−2 OS cells; DS−1 2.5 μM, 48 h): 18.1 ± 6.6%; relative mobility compared to control cells (U−2 OS cells; DS−1 5.0 µM, 24 h): 17.5 ± 6.6%; relative mobility compared to control cells (U−2 OS cells; DS−1 5.0 μM, 48 h): 7.3 ± 7.1%; relative mobility compared to control cells (U−2 OS cells; DS−1 7.5 µM, 24 h): 6.6 ± 0.8%; relative mobility compared to control cells (U−2 OS cells; DS−1 7.5 μM, 48 h): 4.3 ± 1.8%; pAKT, fold of the control group (pAKT; DS−1 5.0 µM): 2.06 ± 0.08 fold; pAKT, fold of the control group (pAKT; DS−1 7.5 µM): 2.10 ± 0.15 fold; pAKT/AKT value (pAKT; with the concentration of DS−1 (2.5, 5.0, 7.5 µM)): increased; vimentin mRNA, fold of the control group (vimentin; DS−1 2.5 µM): 0.67 ± 0.11 fold; vimentin mRNA, fold of the control group (vimentin; DS−1 5.0 µM): 0.51 ± 0.11 fold; vimentin mRNA, fold of the control group (vimentin; DS−1 7.5 µM): 0.12 ± 0.16 fold
